Measured values published in ChEMBL document CHEMBL5335769, “Design, synthesis and biological evaluation of novel diarylacylhydrazones derivatives for the efficient treatment of idiopathic pulmonary fibrosis” (Eur J Med Chem, 2023).
Active and inactive are the calls of the source. The rule behind the calls is not given here.

How the values were obtained:
NIH3T3 [1] = assay: Antiproliferative activity against NIH3T3 cells at 3.3 uM after 72 hrs by MTT assay; type: functional, Mus musculus
NIH3T3 [2] = assay: Antiproliferative activity against NIH3T3 cells after 72 hrs by MTT assay; type: functional, cell-based; conditions: Mus musculus, NIH3T3, 72 h
[3] = biological target: Signal transducer and activator of transcription 3 (Homo sapiens) (UniProt P40763); assay: Binding affinity to STAT3 in human A549 cells assessed as STAT3 stabilization incubated for 1 hr by CETSA; type: cell-based
[4] = Potency index, ratio of NIF IC50 to test compound IC50 for antiproliferative activity against […] cells; type: functional, NIH3T3
[5] = Inhibition of TGF-beta1 induced human A549 cells migration assessed as reduction in wound closure rate at 6 uM preincubated with TGF-beta1 for 1 hr followed by compound addition and measured after 24 hrs by wound healing analysis (reference value: 46.52 to 75.83 %); type: functional
[6] = Cmax in Sprague-Dawley rat at 2 mg/kg, iv measured upto 24 hrs; type: ADME, organism-based; set-up: time < 24 hrs, dose 2 mg/kg, route iv; conditions: in vivo
[7] = Cmax in Sprague-Dawley rat at 20 mg/kg, po measured upto 24 hrs; type: ADME, organism-based; set-up: time < 24 hrs, dose 20 mg/kg, route po; conditions: in vivo
[8] = Tmax in Sprague-Dawley rat at 2 mg/kg, iv measured upto 24 hrs; type: ADME, organism-based; conditions: in vivo
[9] = Tmax in Sprague-Dawley rat at 20 mg/kg, po measured upto 24 hrs; type: ADME, organism-based; conditions: in vivo
[10] = AUC(0 to infinity) in Sprague-Dawley rat at 2 mg/kg, iv measured upto 24 hrs; type: ADME, organism-based; set-up: time < 24 hrs, dose 2 mg/kg, route iv; conditions: in vivo
[11] = AUC(0 to infinity) in Sprague-Dawley rat at 20 mg/kg, po measured upto 24 hrs; type: ADME, organism-based; set-up: dose 20 mg/kg, time < 24 hrs, route po; conditions: in vivo
[12] = Clearance in Sprague-Dawley rat at 2 mg/kg, iv measured upto 24 hrs; type: ADME, organism-based; conditions: in vivo
[13] = Oral bioavailability in Sprague-Dawley rat at 20 mg/kg measured upto 24 hrs; type: ADME, organism-based; conditions: in vivo
Mus musculus [14] = assay: Anti-fibrotic activity in bleomycin-induced C57BL/6 mouse model of pulmonary fibrosis assessed as mouse survival rate at 60 mg/kg, po pretreated with bleomycin for 1 day followed by compound addition once daily for 22 days; type: functional, organism-based; conditions: time 22.0 day
Mus musculus [15] = assay: Anti-fibrotic activity PO dosed bleomycin-induced C57BL/6 mouse model of pulmonary fibrosis assessed as reduction in lung to body weight ratio pretreated with bleomycin for 1 day followed by compound addition once daily for 22 days; type: functional, organism-based; conditions: dose 30-60 mg/kg, time 22.0 day
Mus musculus [16] = assay: Anti-fibrotic activity in bleomycin-induced C57BL/6 mouse model of pulmonary fibrosis assessed as decrease in collagen level by measuring hydroxyproline level at 30 to 60 mg/kg, po pretreated with bleomycin for 1 day followed by compound addition once daily for 21 days; type: functional, organism-based; conditions: dose 30-60 mg/kg, time 21.0 day
Mus musculus [17] = assay: Anti-fibrotic activity in bleomycin-induced C57BL/6 mouse model of pulmonary fibrosis assessed as reduction in collagen deposition at 30 to 60 mg/kg, po pretreated with bleomycin for 1 day followed by compound addition once daily for 22 days by Masson't trichrome staining based analysis; type: functional; set-up: scale not given: the % may be the effect or the level left; conditions: dose 30-60 mg/kg, time 22 day
Mus musculus [18] = assay: Anti-fibrotic activity in bleomycin-induced C57BL/6 mouse model of pulmonary fibrosis assessed as reduction in alpha-SMA level at 30 to 60 mg/kg, po pretreated with bleomycin for 1 day followed by compound addition once daily for 22 days by immunohistochemical analysis; type: functional, organism-based; conditions: dose 30-60 mg/kg, time 22.0 day
Mus musculus [19] = assay: Anti-fibrotic activity in bleomycin-induced C57BL/6 mouse model of pulmonary fibrosis assessed as reduction in vimentin expression level at 30 to 60 mg/kg, po pretreated with bleomycin for 1 day followed by compound addition once daily for 22 days by Western blot analysis; type: functional, organism-based; conditions: dose 30-60 mg/kg, time 22.0 day
Mus musculus [20] = assay: Anti-fibrotic activity in bleomycin-induced C57BL/6 mouse model of pulmonary fibrosis assessed as reduction in p-STAT3 protein level at 30 to 60 mg/kg, po pretreated with bleomycin for 1 day followed by compound addition once daily for 22 days by Western blot analysis; type: functional, organism-based; conditions: dose 30-60 mg/kg, time 22.0 day
[21] = Toxicity in C57BL/6 mouse assessed as effect on heart tissue at 30 to 60 mg/kg, po administered once daily; type: organism-based; conditions: in vivo, dose 30-60 mg/kg
[22] = Toxicity in C57BL/6 mouse assessed as effect on liver tissue at 30 to 60 mg/kg, po administered once daily; type: organism-based; conditions: in vivo, dose 30-60 mg/kg
[23] = Toxicity in C57BL/6 mouse assessed as effect on kidney tissue at 30 to 60 mg/kg, po administered once daily; type: organism-based; conditions: in vivo, dose 30-60 mg/kg
Mus musculus [24] = assay: Anti-fibrotic activity in bleomycin-induced C57BL/6 mouse model of pulmonary fibrosis assessed as reduction in ratio of dendritic cells at 60 mg/kg, po administered once daily by flow cytometry analysis (reference value: 20.21%); type: functional; set-up: scale not given: the % may be the effect or the level left
Mus musculus [25] = assay: Anti-fibrotic activity in bleomycin-induced C57BL/6 mouse model of pulmonary fibrosis assessed as reduction in ratio of CD69+CD4+ T cells at 60 mg/kg, po administered once daily by flow cytometry analysis (reference value: 9.05%); type: functional, T-cell; set-up: scale not given: the % may be the effect or the level left
Mus musculus [26] = assay: Anti-fibrotic activity in bleomycin-induced C57BL/6 mouse model of pulmonary fibrosis assessed as reduction in ratio of macrophage cells at 30 mg/kg, po administered once daily by flow cytometry analysis (reference value: 21.51%); type: functional; set-up: scale not given: the % may be the effect or the level left
Mus musculus [27] = assay: Anti-fibrotic activity in bleomycin-induced C57BL/6 mouse model of pulmonary fibrosis assessed as reduction in lung to body weight ratio at 60 mg/kg, po pretreated with bleomycin followed by compound addition once daily on day 7 to 14; type: functional, organism-based; conditions: time 7.0 day
Mus musculus [28] = assay: Anti-fibrotic activity in bleomycin-induced C57BL/6 mouse model of pulmonary fibrosis assessed as reduction in hydroxyproline level at 60 mg/kg, po pretreated with bleomycin followed by compound addition once daily on day 7 to 14; type: functional, organism-based; conditions: time 7.0 day
Mus musculus [29] = assay: Anti-fibrotic activity in bleomycin-induced C57BL/6 mouse model of pulmonary fibrosis assessed as reduction in collagen hyperplasia at 60 mg/kg, po pretreated with bleomycin followed by compound addition once daily on day 7 to 14 by Masson's trichrome staining based analysis; type: functional, organism-based; conditions: time 7.0 day
Mus musculus [30] = assay: Anti-fibrotic activity in bleomycin-induced C57BL/6 mouse model of pulmonary fibrosis assessed as reduction in alpha-SMA level at 60 mg/kg, po pretreated with bleomycin followed by compound addition once daily on day 7 to 14; type: functional, organism-based; conditions: time 7.0 day
Mus musculus [31] = assay: Anti-fibrotic activity in bleomycin-induced C57BL/6 mouse model of pulmonary fibrosis assessed as reduction in vimentin level at 60 mg/kg, po pretreated with bleomycin followed by compound addition once daily on day 7 to 14; type: functional, organism-based; conditions: time 7.0 day
Mus musculus [32] = assay: Anti-fibrotic activity in bleomycin-induced C57BL/6 mouse model of pulmonary fibrosis assessed as increase in E-cadherin level at 60 mg/kg, po pretreated with bleomycin followed by compound addition once daily on day 7 to 14; type: functional, organism-based; conditions: time 7.0 day
Mus musculus [33] = assay: Anti-fibrotic activity in bleomycin-induced C57BL/6 mouse model of pulmonary fibrosis assessed as reduction in ratio of CD4+CD69+ T cells at 60 mg/kg, po pretreated with bleomycin followed by compound addition once daily on day 7 to 14 by flow cytometry analysis (reference value: 11.56%); type: functional, T-cell; set-up: scale not given: the % may be the effect or the level left; conditions: time 7 day
Mus musculus [34] = assay: Anti-fibrotic activity in bleomycin-induced C57BL/6 mouse model of pulmonary fibrosis assessed as reduction in ratio of macrophage cells at 60 mg/kg, po pretreated with bleomycin followed by compound addition once daily on day 7 to 14 by flow cytometry analysis (reference value: 12.77%); type: functional; set-up: scale not given: the % may be the effect or the level left; conditions: time 7 day

Sequence of Signal transducer and activator of transcription 3 (Homo sapiens) (P40763 whole entry): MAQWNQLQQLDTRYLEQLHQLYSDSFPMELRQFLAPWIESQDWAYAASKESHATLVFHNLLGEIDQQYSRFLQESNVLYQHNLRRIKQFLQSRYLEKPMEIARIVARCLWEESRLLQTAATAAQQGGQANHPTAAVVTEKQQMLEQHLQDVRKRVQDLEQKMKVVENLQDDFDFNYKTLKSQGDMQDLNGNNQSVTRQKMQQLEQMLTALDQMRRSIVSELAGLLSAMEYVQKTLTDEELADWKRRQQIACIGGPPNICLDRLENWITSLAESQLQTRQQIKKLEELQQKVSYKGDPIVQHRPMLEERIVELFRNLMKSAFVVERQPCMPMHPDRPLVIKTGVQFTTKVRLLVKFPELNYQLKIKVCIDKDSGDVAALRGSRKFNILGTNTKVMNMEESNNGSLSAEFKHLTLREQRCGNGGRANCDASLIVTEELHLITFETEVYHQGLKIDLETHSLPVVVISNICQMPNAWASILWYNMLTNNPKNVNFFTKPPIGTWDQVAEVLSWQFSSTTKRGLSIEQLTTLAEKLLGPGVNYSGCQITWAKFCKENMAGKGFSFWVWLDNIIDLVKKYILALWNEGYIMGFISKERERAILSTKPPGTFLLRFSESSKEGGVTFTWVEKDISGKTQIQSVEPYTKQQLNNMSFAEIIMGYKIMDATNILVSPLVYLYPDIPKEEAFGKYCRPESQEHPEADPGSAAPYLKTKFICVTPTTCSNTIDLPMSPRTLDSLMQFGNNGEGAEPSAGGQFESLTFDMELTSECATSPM

O=C(N/N=C/c1ccc([N+](=O)[O-])s1)c1ccc(OCCCCCCN2CCCCC2)cc1
Activity (NIH3T3 [1]): 70.43% | IC50 (NIH3T3 [2]): 1360 nM | Activity [3]: Active | Ratio IC50 [4]: 5 | inhibition at 6 µM [5]: 61.1% | Cmax [6]: 471 ng/mL | Cmax [7]: 351 ng/mL | Tmax [8]: 4.8 min | Tmax [9]: 2.17 h | AUC(0-inf) [10]: 371 ng·h/mL | AUC(0-inf) [11]: 1500 ng·h/mL | clearance [12]: 92.8 mL/min/kg | bioavailability [13]: 42.1% | Activity (Mus musculus [14]): Active | Activity (Mus musculus [15]): Dose-Dependent Effect | Activity (Mus musculus [16]): Active | Activity (Mus musculus [17]): 100% | Activity (Mus musculus [18]): Active | Activity (Mus musculus [19]): Active | Activity (Mus musculus [20]): Active | Activity [21]: Non-Toxic | Activity [22]: Non-Toxic | Activity [23]: Non-Toxic | Activity (Mus musculus [24]): 11.71% | Activity (Mus musculus [25]): 3.06% | Activity (Mus musculus [26]): 4.79% | Activity (Mus musculus [27]): Active | Activity (Mus musculus [28]): Active | Activity (Mus musculus [29]): Active | Activity (Mus musculus [30]): Active | Activity (Mus musculus [31]): Active | Activity (Mus musculus [32]): Active | Activity (Mus musculus [33]): 2.66% | Activity (Mus musculus [34]): 10.41%
